pIC50: −log10 of the molar value.
How the values were obtained:
Leishmania infantum [1] = experiment: Antileishmanial activity against intracellular amastigote form of Leishmania infantum MON 235 infected in human THP1 cells after 48 hrs using giemsa staining; assay type: functional, organism-based; conditions: MON 235, THP-1, 48 h
THP-1 = experiment: Cytotoxicity against human THP1 cells using propidium iodide and SYBR-14 staining after 72 hrs by flow cytometry; assay type: cell-based; conditions: THP-1, 72 h
[2] = Selectivity index, ratio of IC50 for human THP1 cells to IC50 for intracellular amastigote form of Leishmania infantum MON 235; assay type: toxicity, cell-based, THP-1; conditions: read-out: Ratio IC50
Leishmania infantum [3] = experiment: Antileishmanial activity against intracellular amastigote form of Leishmania infantum MK-1 infected in human THP1 cells after 48 hrs using giemsa staining; assay type: functional, organism-based; conditions: MK-1, THP-1, 48 h
[4] = Selectivity index, ratio of IC50 for human THP1 cells to IC50 for intracellular amastigote form of Leishmania infantum MK-1; assay type: toxicity, cell-based, THP-1; conditions: read-out: Ratio IC50
Homo sapiens = organism: Homo sapiens; experiment: Half life in human; assay type: ADME, organism-based; conditions: in vivo

| pIC50 (Leishmania infantum [1]) | pIC50 (Leishmania infantum [3]) | t1/2 (Homo sapiens) [min] | SMILES | pIC50 (THP-1) | selectivity ratio [2] | selectivity ratio [4] |
| --- | --- | --- | --- | --- | --- | --- |
| 6.10 |  |  | C[N+](C)(C)[C@H]1CCCC[C@@H]1OP(=O)([O-])OCCCCCCCCCCC=C1C2CC3CC(C2)CC1C3 | 4.40 | 49.6 |  |
|  | < 4.30 |  | CCCCOCCC12CC3CC(C1)CC(CCOP(=O)([O-])OCC[N+](C)(C)C)(C3)C2 | < 4.30 |  |  |
|  | 4.77 |  | CCCCCCOCCC12CC3CC(C1)CC(CCOP(=O)([O-])OCC[N+](C)(C)C)(C3)C2 | < 4.30 |  |  |
|  | 4.79 |  | CCCCCCCCOCCC12CC3CC(C1)CC(CCOP(=O)([O-])OCC[N+](C)(C)C)(C3)C2 | < 4.30 |  |  |
| 5.87 |  |  | C[N+]1(CCOP(=O)([O-])OCCCCCCCCCCC=C2C3CC4CC(C3)CC2C4)CCOCC1 |  | 27.9 |  |
| 5.04 |  |  | C[N+]1(C)C2CCC1CC(=CCOP(=O)([O-])OCCCCCCCCCCC=C1C3CC4CC(C3)CC1C4)C2 |  | 16.2 |  |

Further lines, the compound ahead of its results:

| SMILES | pIC50 (Leishmania infantum [1]) | pIC50 (Leishmania infantum [3]) | t1/2 (Homo sapiens) [min] | pIC50 (THP-1) | selectivity ratio [2] | selectivity ratio [4] |
| --- | --- | --- | --- | --- | --- | --- |
| C[N+](C)(C)[C@H]1CCC[C@@H]1OP(=O)([O-])OCCCCCCCCCCC=C1C2CC3CC(C2)CC1C3 | 6.52 |  |  | 4.13 | 250 |  |
| CCCCCCCCCCOCCC12CC3CC(C1)CC(CCOP(=O)([O-])OCC[N+](C)(C)C)(C3)C2 |  | < 4.74 |  | 4.74 |  |  |
| CCCCCCCCCCCCOCCC12CC3CC(C1)CC(CCOP(=O)([O-])OCC[N+](C)(C)C)(C3)C2 |  | < 4.67 |  | 4.67 |  |  |
| C[N+](C)(C)CCOP(=O)([O-])OCCC12CC3CC(CC(CCOCc4ccccc4)(C3)C1)C2 |  | 4.38 |  | < 4.30 |  |  |
| C[N+]1(CCOP(=O)([O-])OCCCCCCCCCCC=C2C3CC4CC(C3)CC2C4)CCCCC1 | 5.24 |  |  |  | 29.6 |  |
| C[N+](C)(C)CCOP(=O)([O-])OCCCCCCCCCCC=C1C2CC3CC(C2)CC1C3 | 7.51 |  |  |  | 1920 |  |
| C[N+](C)(C)CC#CCOP(=O)([O-])OCCCCCCCCCCC=C1C2CC3CC(C2)CC1C3 | 5.28 |  |  |  | 14.5 |  |
| CCCCCCCCCCCCCCCCOP(=O)([O-])OCC[N+](C)(C)C [MILTEFOSINE] | 5.17 | 5.59 | 100 |  | 8.7 | 11.2 |
